In brackets after ≈: the same amount, converted by molar mass.
How the values were obtained:
[1] = system: Mycolicibacterium smegmatis; assay: Antimicrobial activity against Mycobacterium smegmatis; assay type: functional
[2] = system: Mycobacterium tuberculosis; assay: Antimicrobial activity against Mycobacterium tuberculosis H37Rv by almar blue assay; assay type: functional

**Q.** `CCCCCCCCCCCCCCCC(=O)O[C@H]1CN(C)[C@@H]([C@H](O[C@@H]2O[C@H](CN)[C@@H](O)[C@H]2O)[C@H]2O[C@@H](n3ccc(=O)[nH]c3=O)[C@H](O)[C@@H]2O)C(=O)N(C)[C@@H]1C(=O)O` [PALMITOYL CAPRAZOL] was tested. Which MIC [1] did it give?
**A.** 6.25 µg/mL (≈ 7.68 µM)

**Q.** And the MIC50 [2]?
**A.** 2.5 µg/mL (≈ 3.07 µM)

**Q.** With `CCCCCCCCCCCCCCCC(=O)O[C@H]1CN(C)[C@@H]([C@@H](C)O[C@@H]2O[C@H](CN)[C@@H](O)[C@H]2O)C(=O)N(C)[C@@H]1C(=O)O` as the compound, how does the MIC50 [2] read?
**A.** > 100 µg/mL

**Q.** How did the MIC50 [2] turn out when `CCCCCCCCCCCCCCCC(=O)OC[C@H](NC(=O)[C@@H](N)[C@H](O[C@@H]1O[C@H](CN)[C@@H](O)[C@H]1O)[C@H]1O[C@@H](n2ccc(=O)[nH]c2=O)[C@H](O)[C@@H]1O)C(=O)O` was run?
**A.** 6.25 µg/mL (≈ 8.08 µM)

**Q.** Which MIC50 [2] does the source give for `CN1C[C@H](O)[C@@H](C(=O)O)N(C)C(=O)[C@@H]1[C@H](O[C@@H]1O[C@H](CN)[C@@H](O)[C@H]1O)[C@H]1O[C@@H](n2ccc(=O)[nH]c2=O)[C@H](O)[C@@H]1O` [CAPRAZOL] here?
**A.** > 100 µg/mL

**Q.** Which MIC [1] does the source give for `CO[C@@H]1[C@@H](OC)[C@H](C)O[C@@H](OC(=O)C[C@@H](C)CC(=O)O[C@@H](CCCCCCCCCC(C)C)CC(=O)O[C@H]2CN(C)[C@@H]([C@H](O[C@@H]3O[C@H](CN)[C@@H](O)[C@H]3O)[C@H]3O[C@@H](n4ccc(=O)[nH]c4=O)[C@H](O)[C@@H]3O)C(=O)N(C)[C@@H]2C(=O)O)[C@@H]1OC` here?
**A.** 1.56 µg/mL (≈ 1.38 µM)

**Q.** For `CCCCCCCCCCCCCCCC(=O)O[C@H]1CN(C)[C@@H]([C@H](O)[C@H]2O[C@@H](n3ccc(=O)[nH]c3=O)[C@H](O)[C@@H]2O)C(=O)N(C)[C@@H]1C(=O)O`, which MIC50 [2] is on record?
**A.** > 100 µg/mL

From ChEMBL document CHEMBL1157188, “Structure-activity relationship of truncated analogs of caprazamycins as potential anti-tuberculosis agents” (2008)
